According to PMC7238241, “Lack of Correlation between In Vitro and In Vivo Studies on the Inhibitory Effects of (‒)-Sophoranone on CYP2C9 Is Attributable to Low Oral Absorption and Extensive Plasma Protein Binding of (‒)-Sophoranone” (Pharmaceutics, 2020):

What was measured:
Format in all cases: biochemical
[1] = biological target: T1, CYP1A2 (Homo sapiens, UniProt P05177); test: Reversible CYP1A2 inhibition, cocktail assay (phenacetin O-deethylase) in human liver microsomes
T1 construct: tissue Corning Life Sciences; host or cells: pooled human liver microsomes, 150 donors
T1 sequence (P05177 1-516): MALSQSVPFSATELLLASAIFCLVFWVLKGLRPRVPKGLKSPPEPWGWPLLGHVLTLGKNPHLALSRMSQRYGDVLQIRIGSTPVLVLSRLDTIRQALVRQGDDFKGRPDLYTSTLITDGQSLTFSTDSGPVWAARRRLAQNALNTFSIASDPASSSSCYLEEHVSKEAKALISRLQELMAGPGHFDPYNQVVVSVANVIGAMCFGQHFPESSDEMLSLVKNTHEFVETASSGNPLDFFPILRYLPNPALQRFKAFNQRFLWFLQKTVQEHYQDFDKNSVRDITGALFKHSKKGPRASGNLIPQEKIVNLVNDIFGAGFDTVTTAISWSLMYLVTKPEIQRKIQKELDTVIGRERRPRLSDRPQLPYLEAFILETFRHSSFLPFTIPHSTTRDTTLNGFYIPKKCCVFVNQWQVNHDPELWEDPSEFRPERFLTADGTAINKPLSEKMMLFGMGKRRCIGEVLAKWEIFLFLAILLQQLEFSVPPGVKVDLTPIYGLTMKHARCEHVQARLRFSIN
Protocol: (§1) The inhibitory effects of SPN on CYP1A2, CYP2A6, CYP2B6, CYP2C8, CYP2C9, CYP2C19, CYP2D6, CYP2E1, and CYP3A4 were evaluated in pooled human liver microsomes through the use of specific CYP probe substrates (cocktail assay), as previously described with a slight modification. Concentrations of each CYP probe in Table 1 were used close to their reported Km values.
(§2) Briefly, a 90-µL incubation mixture, including pooled human liver microsomes (final concentration 0.1 mg/mL), 50 mM phosphate buffer (pH 7.4), each CYP-probe substrate cocktail set, and SPN (0–50 μM), was pre-incubated for 5 min at 37 °C. SPN was dissolved in methanol and spiked into the incubation mixture to a final concentration of 0.5% methanol. […]
(§3) The IC50 values were calculated via nonlinear least-squares regression analysis from logarithmic plots of inhibitor concentration versus percentage of activity remaining after inhibition, using SigmaPlot (ver. 14.0; Systat Software Inc, Chicago, IL, USA). The Ki values were determined from the equations for a single substrate single inhibitor model and the software available in the SigmaPlot Enzyme Kinetics module. Competitive, non-competitive, uncompetitive, or mixed inhibition models were evaluated and ranked according to the best fit based on Akaike Information Criterion (AIC) values. […]

[2] = biological target: T2, CYP2C9 (Homo sapiens, UniProt P11712); test: Reversible CYP2C9 inhibition, cocktail assay (tolbutamide 4-hydroxylase) in human liver microsomes; settings: human liver microsomes 0.1 mg/mL, tolbutamide probe, n = 3
T2 construct: tissue Corning Life Sciences; host or cells: pooled human liver microsomes, 150 donors
T2 sequence (P11712 whole entry): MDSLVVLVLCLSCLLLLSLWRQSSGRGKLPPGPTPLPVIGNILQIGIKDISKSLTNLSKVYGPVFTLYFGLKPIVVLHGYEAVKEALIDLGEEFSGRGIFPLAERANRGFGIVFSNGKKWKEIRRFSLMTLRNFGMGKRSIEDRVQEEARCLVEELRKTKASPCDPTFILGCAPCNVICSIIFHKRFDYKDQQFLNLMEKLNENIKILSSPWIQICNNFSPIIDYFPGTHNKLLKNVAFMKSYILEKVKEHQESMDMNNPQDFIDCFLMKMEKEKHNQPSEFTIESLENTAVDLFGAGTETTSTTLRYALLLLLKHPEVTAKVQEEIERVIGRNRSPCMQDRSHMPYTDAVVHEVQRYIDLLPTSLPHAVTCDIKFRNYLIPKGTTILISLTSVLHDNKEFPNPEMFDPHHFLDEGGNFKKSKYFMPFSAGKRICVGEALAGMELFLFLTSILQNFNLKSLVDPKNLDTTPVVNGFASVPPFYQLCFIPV
Protocol: as §1, §2, §3

[3] = biological target: T3, CYP3A4 (Homo sapiens, UniProt P08684); test: Reversible CYP3A4 inhibition, cocktail assay (midazolam 1′-hydroxylase) in human liver microsomes; settings: midazolam probe
T3 construct: tissue Corning Life Sciences; host or cells: pooled human liver microsomes, 150 donors
T3 sequence (P08684 whole entry): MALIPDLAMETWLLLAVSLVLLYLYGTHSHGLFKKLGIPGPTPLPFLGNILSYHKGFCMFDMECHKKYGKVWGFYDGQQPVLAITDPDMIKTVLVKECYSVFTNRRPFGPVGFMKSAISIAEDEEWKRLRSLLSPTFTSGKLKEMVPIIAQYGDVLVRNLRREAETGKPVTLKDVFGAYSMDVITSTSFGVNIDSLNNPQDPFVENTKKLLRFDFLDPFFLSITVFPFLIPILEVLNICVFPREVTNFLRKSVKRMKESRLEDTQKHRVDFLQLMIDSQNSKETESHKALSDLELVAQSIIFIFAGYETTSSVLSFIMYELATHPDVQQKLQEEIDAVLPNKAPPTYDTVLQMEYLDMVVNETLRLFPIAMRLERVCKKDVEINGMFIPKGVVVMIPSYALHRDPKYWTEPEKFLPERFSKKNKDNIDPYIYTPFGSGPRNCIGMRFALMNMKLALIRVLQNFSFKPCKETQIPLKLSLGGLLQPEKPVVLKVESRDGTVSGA
Protocol: as §1, §2, §3

[4] = at the highest tested concentration (50 μM)

## CC(C)=CCc1cc([C@@H]2CC(=O)c3ccc(O)c(CC=C(C)C)c3O2)cc(CC=C(C)C)c1O [SPN, (‒)-Sophoranone]
[1]; [4]
  residual enzyme activity, CYP1A2: greater than 80%
[1]; human liver microsomes 0.1 mg/mL, cocktail assay, phenacetin probe, n = 3
  IC50: > 50 µM
[2]
  IC50: 0.966 ± 0.149 µM
[3]; [4]
  residual enzyme activity, CYP3A4: 53.3 ± 4.00%
[3]; human liver microsomes 0.1 mg/mL, cocktail assay, n = 3
  IC50: > 50 µM
